One data set concerns A20 cells. Kind of data set: Inhibition of anti-Fas induced apoptosis, Annexin-V/7-AAD flow cytometry. The format is cell-based. Particulars: anti-Fas (anti-CD95), four hours, Annexin V/7AAD staining. In general terms: In flow cytometry, cells or beads pass a laser one at a time.
For data set [1], the system named is intestinal epithelial cells. The experiment in a line: TUNEL staining of colon sections of C. rodentium infected mice. Type of data set: in vivo, C3H/HeOuJ mice. Particulars: 20 mg/kg intraperitoneally on days 0, 1, 2, 3, and 5, colons day 6. On the procedure:
Colons of C3H/HeOuJ mice were harvested on day 6 and flushed with PBS. Tissues were fresh-frozen in O.C.T. Compound (Sakura Finetek, Zoeterwoude, The Netherlands) and stored at −80° C. Sections of 6 μm were cut and fixed with either 4% paraformaldehyde or ice-cold acetone for 1 h, dried, and stored at −20° C. TUNEL staining was performed using the In Situ Cell Death Detection Kit, TMR Red (Roche) according to manufacturer's instructions. For immunostaining, sections were blocked and incubated with primary antibodies in a humidified atmosphere for 1 hour at room temperature. After washing, conjugated secondary antibodies were added for 35 minutes. The slides were then washed and mounted with Fluoromount-G (Southern Biotech, Birmingham, Ala.). […] Analyses were performed using 10× and 20× dry objectives on a Nikon Eclipse E-600 fluorescence microscope and Adobe® Photoshop® software (Adobe Systems, San Jose, Calif.).
(§1) WT and mutant C. rodentium were prepared by incubation with shaking at 37° C. for 8 hours in LB broth medium. After 8 hours, the bacterial density was assessed at an optical density of 600 nm and confirmed by plating of serial dilutions. […]

In data set [2] the test system is IL-17+ CD4 T-cells in the lamina propria. Kind of data set: IL-17+ CD4 T-cells in lamina propria of C. rodentium infected mice (flow cytometry). The format is in vivo, C57BL/6J and C3H/HeOuJ mice. On the procedure:
The small intestines and colons of C57BL/6J or C3H/HeOuJ mice were harvested at the indicated times. […] To prepare IEL/LPL, small intestines and colons were flushed with HBSS medium without calcium or magnesium (Gibco). Intestines were cut longitudinally and washed twice briefly in HBSS, 2% FBS in 6-well plates and then placed in 15 mL ice-cold HBSS, 2% FBS in 50-mL conical tubes and vortexed at maximum setting for 15-20 seconds. Tissue was removed using long forceps into a new tube with 15 mL ice-cold HBSS, 2% FBS and vortexed again twice, for a total of three washes. The tissues were then placed in 50-mL conical tubes containing 25 mL, HBSS, 5% FBS, and 1 mM DTT (Sigma-Aldrich). Tubes were incubated on a rocker at 37° C. for 20 minutes followed by vortexing extensively at maximum setting. For IEL, fractions were collected after two rounds of 20 minutes in HBSS/FBS/DTT. Tissues were then placed in fresh tubes containing 25 mL of PBS with 1.3 mM EDTA, incubated on a rocker for 60 minutes at 37° C. and vortexed. […]
as §1

Data set [3] deals with caspase-9 and caspase-3, caspase-8 and caspase-10, and caspase-12. The conditions noted are these: cited from earlier work.
Data set [4] relates to infection induced barrier function. The conditions noted are these: cited from earlier work.

“Also recorded” adds a separate entry of the source.

Take `CC(C)[C@H](NC(=O)c1ccc2ccccc2n1)C(=O)N[C@@H](CC(=O)O)C(=O)COc1c(F)cccc1F` [Q-VD-OPH]: the Fas-induced apoptosis entry in the data set on A20 cells is recorded as “protected from undergoing Fas-induced apoptosis; also recorded: inhibits apoptosis”. Moreover, in data set [1], the “numbers of TUNEL+ cells” value was “decreased numbers of TUNEL^+ cells”. Also, the figures for the “number of IL-17+ CD4 T-cells” value in data set [2] (C. rodentium infected C57BL/6J mice) and in data set [2] (both strains of C. rodentium infected mice) were “levels similar to those found in uninfected mice” and “profoundly diminished the number of IL-17^+ CD4 T-cells”, respectively. The “prevention of apoptosis by pathway” value in data set [3] (caspase-9 and caspase-3, caspase-8 and caspase-10, and caspase-12 pathways) is given as “equally effective in preventing apoptosis mediated by the three major apoptotic pathways”. Besides, in data set [3], the “prevention of apoptosis compared with other caspase inhibitors” value was “significantly more effective in preventing apoptosis than ZVAD-fmk and Boc-D-fmk”. Besides, the toxicity to cells result in data set [3] is on record as “not toxic to cells even at extremely high concentrations”. In addition, in data set [4], the “effect on infection induced barrier function” value was “has no effects on infection induced barrier function”.
